This test deals with 138582-337-R-J1-PDC complex spheroid viability. Description: Anticancer human tumor 138582-337-R-J1-PDC patient-derived Merkel cell tumor cell line growth inhibition. The note with it: for viability, T/C: stronger effect = lower value. A digest of the protocol:
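Multicellular complex spheroids of tumor cells with human endothelial cells (HUVEC) and mesenchymal stem cells; the LSD1 inhibitor iadademstat was combined with standard-of-care or investigational agents. Top concentration at or near clinical Cmax, half-log dilutions; final DMSO ≤0.25%.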

Setting [1] is: curve of first compound, second compound 0.1 µM.
Setting [2] is: curve of first compound, second compound 0.316 µM.
The mark [3] stands for this setting: curve of first compound, second compound 1 µM.
The mark [4] stands for this setting: curve of first compound, second compound 3.16 µM.
The mark [5] stands for this setting: curve of first compound, second compound 10 µM.
Where [6] appears, read: second compound 0.1 µM, first compound 0.00316 µM.
Setting [7] is: second compound 0.1 µM, first compound 0.01 µM.
Setting [8] is: second compound 0.1 µM, first compound 0.0316 µM.
Setting [9] is: second compound 0.1 µM, first compound 0.1 µM.
[10] abbreviates: second compound 0.1 µM, first compound 0.316 µM.
[11] abbreviates: second compound 0.1 µM, first compound 1 µM.
Where [12] appears, read: second compound 0.316 µM, first compound 0.00316 µM.
Where [13] appears, read: second compound 0.316 µM, first compound 0.01 µM.
Where [14] appears, read: second compound 0.316 µM, first compound 0.0316 µM.
Where [15] appears, read: second compound 0.316 µM, first compound 0.1 µM.
The mark [16] stands for this setting: second compound 0.316 µM, first compound 0.316 µM.
The mark [17] stands for this setting: second compound 0.316 µM, first compound 1 µM.
Where [18] appears, read: second compound 1 µM, first compound 0.00316 µM.
Setting [19] is: second compound 1 µM, first compound 0.01 µM.
[20] abbreviates: second compound 1 µM, first compound 0.0316 µM.
[21] abbreviates: second compound 1 µM, first compound 0.1 µM.
[22] abbreviates: second compound 1 µM, first compound 0.316 µM.
The mark [23] stands for this setting: second compound 1 µM, first compound 1 µM.
Setting [24] is: second compound 3.16 µM, first compound 0.00316 µM.
Where [25] appears, read: second compound 3.16 µM, first compound 0.01 µM.
The mark [26] stands for this setting: second compound 3.16 µM, first compound 0.0316 µM.
[27] abbreviates: second compound 3.16 µM, first compound 0.1 µM.
Where [28] appears, read: second compound 3.16 µM, first compound 0.316 µM.
[29] abbreviates: second compound 3.16 µM, first compound 1 µM.
The mark [30] stands for this setting: second compound 10 µM, first compound 0.00316 µM.
Setting [31] is: second compound 10 µM, first compound 0.01 µM.
Where [32] appears, read: second compound 10 µM, first compound 0.0316 µM.
Where [33] appears, read: second compound 10 µM, first compound 0.1 µM.
[34] abbreviates: second compound 10 µM, first compound 0.316 µM.
[35] abbreviates: second compound 10 µM, first compound 1 µM.
[36] abbreviates: second compound 0.1 µM, first compound 0.000316 µM.
[37] abbreviates: second compound 0.1 µM, first compound 0.001 µM.
Setting [38] is: second compound 0.316 µM, first compound 0.000316 µM.
Where [39] appears, read: second compound 0.316 µM, first compound 0.001 µM.
The mark [40] stands for this setting: second compound 1 µM, first compound 0.000316 µM.
Setting [41] is: second compound 1 µM, first compound 0.001 µM.
Where [42] appears, read: second compound 3.16 µM, first compound 0.000316 µM.
Setting [43] is: second compound 3.16 µM, first compound 0.001 µM.
The mark [44] stands for this setting: second compound 10 µM, first compound 0.000316 µM.
The mark [45] stands for this setting: second compound 10 µM, first compound 0.001 µM.

Seven compounds from PubChem BioAssay AID1918931 (Molecular Pharmacology Branch, DTP, NCI, 2023) can be followed below.

Structures are written as SMILES. Several values for one entry are separate records, joined by “and”; a condition that tells them apart may be missing. Equal entries are not always repeated. Where only a bound is given, the exact number is not on record here.
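Further: spheroids exposed to agents for 7 days.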
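Wherever viability, T/C is given: 100% = DMSO vehicle control viability.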

The viability, T/C is the result in the treated group divided by that in the control group, in per cent. As a reminder, the IC50 is the midpoint of a concentration-inhibition curve. With `Nc1ncn(C2CC(O)C(CO)O2)c(=O)n1` (stereo unspecified), the viability, T/C was 102% and 109% (compound 0.00316 µM); 78.7% and 124% (compound 0.01 µM); 90% and 123% (compound 0.0316 µM); 83.7% and 111% (compound 0.1 µM); 112% and 122% (compound 0.316 µM); 112% and 91.2% (compound 1 µM). Also, under “curve of compound”, the IC50 is more than 1000 nM.

For `O=C(C=Cn1cnc(-c2cc(C(F)(F)F)cc(C(F)(F)F)c2)n1)NNc1cnccn1`, the viability, T/C (compound 0.00316 µM) was 79.5% and 60.6%; the viability, T/C (compound 0.01 µM) was 49.6% and 56.1%; the viability, T/C (compound 0.0316 µM) is 24.6% and 29.2%; the viability, T/C (compound 0.1 µM) is 15.6% and 17.7%; the viability, T/C (compound 0.316 µM) is 18.6% and 17.6%; the viability, T/C (compound 1 µM) was 16.4% and 15.4%. In addition, the IC50 (curve of compound) is 9.91 nM and 13 nM.

As for `CC[C@@]1(O)C(=O)OCc2c1cc1n(c2=O)Cc2cc3c(CN(C)C)c(O)ccc3nc2-1`, the viability, T/C was 91% and 92.2% (compound 0.000316 µM); 103% and 101% (compound 0.001 µM); 77.7% and 62.7% (compound 0.00316 µM); 83.7% and 57.4% (compound 0.01 µM); 95% and 57.3% (compound 0.0316 µM); 85.6% and 47.7% (compound 0.1 µM). Besides, where the note is “curve of compound”, the IC50 was more than 100 nM.

As for `O=C(C=Cn1cnc(-c2cc(C(F)(F)F)cc(C(F)(F)F)c2)n1)NNc1cnccn1` + NC1CC1c1ccc(-c2cccc(O)c2)cc1, the IC50 by setting is: under setting [1], 11.5 nM; under setting [2], 10.4 nM; under setting [3], 5.94 nM; under setting [4], 5.94 nM; under setting [5], 15.8 nM. The viability, T/C reads like this: under setting [6], 60.7%; under setting [7], 53%; under setting [8], 27.8%; under setting [9], 17.4%; under setting [10], 16.3%; under setting [11], 15.7%. Also, the viability, T/C is 56.7% under setting [12]; 50.4% under setting [13]; 28.1% under setting [14]; 16.2% under setting [15]; 17.3% under setting [16]; 21% under setting [17]. For the same compound, the viability, T/C by setting is: under setting [18], 55.2%; under setting [19], 44.8%; under setting [20], 33.8%; under setting [21], 21.1%; under setting [22], 18.6%; under setting [23], 23.8%. Also, the viability, T/C runs as follows: under setting [24], 55.2%; under setting [25], 46%; under setting [26], 29.3%; under setting [27], 22.1%; under setting [28], 22.6%; under setting [29], 17.3%. In addition, the viability, T/C reads like this: under setting [30], 55.4%; under setting [31], 53.1%; under setting [32], 44.6%; under setting [33], 35.1%; under setting [34], 24.9%; under setting [35], 32.2%.

For the compound `Nc1ncn(C2CC(O)C(CO)O2)c(=O)n1` (stereo unspecified) + NC1CC1c1ccc(-c2cccc(O)c2)cc1, the 50% inhibitory concentration (IC50) runs as follows: under setting [1], more than 1000 nM; under setting [2], more than 1000 nM; under setting [3], more than 1000 nM; under setting [4], more than 1000 nM; under setting [5], more than 1000 nM. The viability, T/C reads like this: under setting [6], 74%; under setting [7], 92%; under setting [8], 94.5%; under setting [9], 85.7%; under setting [10], 77.8%; under setting [11], 75.3%. Also, the viability, T/C under setting [12] is 82.3%; the viability, T/C under setting [13] is 98.7%; the viability, T/C under setting [14] was 108%; the viability, T/C under setting [15] was 85.7%; the viability, T/C under setting [16] was 85.3%; the viability, T/C under setting [17] was 76.6%. The viability, T/C is, setting by setting: under setting [18], 75.8%; under setting [19], 109%; under setting [20], 98.1%; under setting [21], 88.5%; under setting [22], 83%; under setting [23], 84.9%. Also, the viability, T/C is 67.7% under setting [24]; 119% under setting [25]; 113% under setting [26]; 89.6% under setting [27]; 87.8% under setting [28]; 80.1% under setting [29]. Moreover, the viability, T/C under setting [30] was 85.8%; the viability, T/C under setting [31] was 99.2%; the viability, T/C under setting [32] is 118%; the viability, T/C under setting [33] was 106%; the viability, T/C under setting [34] is 113%; the viability, T/C under setting [35] was 88.4%.

For the compound `Cn1ncnc1C1c2n[nH]c(=O)c3cc(F)cc(c23)NC1c1ccc(F)cc1` (stereo unspecified) + NC1CC1c1ccc(-c2cccc(O)c2)cc1, the IC50 is more than 100 nM under setting [1]; more than 100 nM under setting [2]; more than 100 nM under setting [3]; more than 100 nM under setting [4]; more than 100 nM under setting [5]. For the same compound, the viability, T/C is 88.1% under setting [36]; 80.2% under setting [37]; 83.3% under setting [6]; 69.9% under setting [7]; 62.3% under setting [8]; 67.3% under setting [9]. For the same compound, the viability, T/C by setting is: under setting [38], 72.5%; under setting [39], 88.3%; under setting [12], 74.2%; under setting [13], 71%; under setting [14], 66%; under setting [15], 70.7%. Also, the viability, T/C was 79.8% under setting [40]; 83.7% under setting [41]; 73% under setting [18]; 86.2% under setting [19]; 82.2% under setting [20]; 77% under setting [21]. Further, the viability, T/C by setting is: under setting [42], 80.4%; under setting [43], 91.3%; under setting [24], 82.5%; under setting [25], 81.1%; under setting [26], 72.1%; under setting [27], 77.5%. For the same compound, the viability, T/C under setting [44] is 99%; the viability, T/C under setting [45] was 96.1%; the viability, T/C under setting [30] is 100%; the viability, T/C under setting [31] was 84.3%; the viability, T/C under setting [32] was 82.7%; the viability, T/C under setting [33] is 81.2%.

With `CC(C)CC(NC(=O)C(Cc1ccccc1)NC(=O)c1cnccn1)B(O)O` (stereo unspecified) + NC1CCC(NC2CC2c2ccccc2)CC1, the IC50 by setting is: under setting [1], 1.03 nM; under setting [2], 1.01 nM; under setting [3], 0.946 nM; under setting [4], 0.951 nM; under setting [5], 0.842 nM. For the same compound, the viability, T/C was 125% under setting [36]; 51.3% under setting [37]; 0.5% under setting [6]; 0.19% under setting [7]; 0.22% under setting [8]; 0.28% under setting [9]. Also, the viability, T/C reads like this: under setting [38], 116%; under setting [39], 50.6%; under setting [12], 0.83%; under setting [13], 0.29%; under setting [14], 0.16%; under setting [15], 0.25%. In addition, the viability, T/C under setting [40] was 114%; the viability, T/C under setting [41] was 46.8%; the viability, T/C under setting [18] is 0.91%; the viability, T/C under setting [19] is 0.12%; the viability, T/C under setting [20] is 0.14%; the viability, T/C under setting [21] was 0.29%. Further, the viability, T/C under setting [42] is 116%; the viability, T/C under setting [43] was 47%; the viability, T/C under setting [24] is 1.46%; the viability, T/C under setting [25] was 0.18%; the viability, T/C under setting [26] is 0.15%; the viability, T/C under setting [27] was 0.25%. Further, the viability, T/C reads like this: under setting [44], 105%; under setting [45], 40.3%; under setting [30], 0.75%; under setting [31], 0.3%; under setting [32], 0.22%; under setting [33], 0.24%.
